Patent US20120077802A1 (SUNOVION PHARMACEUTICALS INC., priority 2009, published 2012)

target: T1, human histamine H3 receptor (Homo sapiens, UniProt Q9Y5N1); assay: H3 GTPγS assay (SPA method), histamine H3 in vitro assay; format: biochemical; conditions: GTPγ[35S] SPA, membranes of cells expressing human H3 receptor; in one embodiment HCl salts tested; read-out: Potency (functional potency as indicated by IC50)
T1 construct: host or cells: cells expressing the human H3 receptor
Method: H3 GTPγS assay (SPA method) was performed at EuroScreen (Belgium, ES-392-C) using conventional methods. Briefly, cells expressing the human histamine H3 receptor were homogenized in 15 mM Tris-HCl pH 7.5, 2 mM MgCl2, 0.3 mM EDTA, and 1 mM EGTA. Membranes were washed twice in the above tris buffer, collected by centrifugation (40,000×g, 25 min), and re-suspended in 75 mM Tris-HCl pH 7.5, 12.5 mM MgCl2, 0.3 mM EDTA, 1 mM EGTA, and 250 mM sucrose. Membranes were frozen in liquid nitrogen until use. On the day of the assay, membranes were thawed and diluted in assay buffer (20 mM HEPES pH 7.4, 100 mM NaCl, 10 μg/ml saponin, 1 mM MgCl2) to give 500 μg/ml and mixed (v/v) with GDP in assay buffer for a final GDP concentration of 10 μM and incubated on ice for at least 15 min. PVT-WGA beads (Amersham, RPNQ001) were diluted in assay buffer at 50 mg/mL and mixed with GTPγ[^35S] (Amersham, SJ1308) diluted in assay buffer to give ˜25,000 dpm/10 μL, and mixed vol/vol just before the start of the reaction. The reaction was started by adding 50 μL of test compound, 20 μL of the membranes:GDP mix, 10 μL of buffer, and 20 μL of the GTPγ[^35S]:beads mix in a 96 well plate Optiplate™ (PerkinElmer, 6005299) covered with topseal (TopCount™, PerkinElmer), mixed with an orbital shaker for 2 min, incubated for 1 hour at room temperature, centrifuged for 10 min at 2000 rpm, incubated for 1 h at room temperature, and counted for 1 min in a TopCount™ reader (PerkinElmer). Dose response curves and IC50 values (concentration to inhibit the reaction by 50%) were calculated by nonlinear regression using XLfit software (IDBS).
For antagonists testing, 10 μL of a reference agonist (R-γ-Me-Histamine) instead of 10 μL buffer was added at a concentration corresponding to the EC80 (30 nM). Control ligands were R-γ-Me-Histamine (Tocris, 0569), Imetit (Sigma, I-135), Thioperamide (Tocris, 0644), and Clobenpropit (Tocris, 0754) diluted in assay buffer.
The compounds provided herein were tested in the histamine H3 in vitro assay. In one embodiment, the respective HCl salts of the compounds provided herein were prepared using standard chemical procedures and tested in the histamine H3 in vitro assay.

T1 sequence (Q9Y5N1 whole entry): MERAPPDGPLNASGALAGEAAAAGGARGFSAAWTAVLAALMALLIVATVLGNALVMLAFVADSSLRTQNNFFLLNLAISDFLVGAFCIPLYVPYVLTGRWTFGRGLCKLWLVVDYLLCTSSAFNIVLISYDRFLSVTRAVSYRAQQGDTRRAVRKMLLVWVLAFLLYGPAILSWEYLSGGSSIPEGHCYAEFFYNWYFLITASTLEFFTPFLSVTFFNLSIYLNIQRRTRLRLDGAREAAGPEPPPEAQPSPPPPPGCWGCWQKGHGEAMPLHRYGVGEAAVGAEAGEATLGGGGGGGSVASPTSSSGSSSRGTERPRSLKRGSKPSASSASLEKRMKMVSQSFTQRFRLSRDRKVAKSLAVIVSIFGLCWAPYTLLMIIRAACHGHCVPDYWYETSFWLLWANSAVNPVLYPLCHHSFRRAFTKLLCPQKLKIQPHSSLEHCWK

`Brc1ccc2c(c1)CC1(CCN(C3CCC3)CC1)O2` [Compound 23, 5-Bromo-1′-cyclobutyl-3H-spiro[benzofuran-2,4′-piperidine]] and `Brc1ccc2c(c1)CC1(CCCN(C3CCC3)CC1)O2` (stereo not shown) [Compound 47, 5′-Bromo-1-cyclobutyl-3′H-spiro[azepane-4,2′-benzofuran]] cannot be ordered by IC50: ≤ 1000 nM for the first, ≤ 1000 nM for the second.

`CN1CCC(N2CCC3(CC2)Cc2cc(Br)ccc2O3)CC1` [Compound 24, 5-Bromo-1′-(1-methylpiperidin-4-yl)-3H-spiro[benzofuran-2,4′-piperidine]] and `CN1CCN(c2ccc3c(c2)CC2(CCN(C4CCC4)CC2)O3)CC1` [Compound 33, 1′-Cyclobutyl-5-(4-methylpiperazin-1-yl)-3H-spiro[benzofuran-2,4′-piperidine]] cannot be ordered by IC50: ≤ 1000 nM for the first, ≤ 10 nM for the second.

`CC(C1CCC1)N1CCC2(CC1)Cc1cc(Br)ccc1O2` (stereo not shown) [Compound 25, 5-Bromo-1′-(1-cyclobutylethyl)-3H-spiro[benzofuran-2,4′-piperidine]] and `CN(C)Cc1ccc2c(c1)CC1(CCN(C3CCC3)CC1)O2` [Compound 39, 1-(1′-Cyclobutyl-3H-spiro[benzofuran-2,4′-piperidine]-5-yl)-N,N-dimethylmethanamine] cannot be ordered by IC50: ≤ 1000 nM for the first, ≤ 10 nM for the second.

`c1cc2c(cc1-c1cn[nH]c1)CC1(CCN(C3CCC3)CC1)O2` [Compound 27, 1′-Cyclobutyl-5-(1H-pyrazol-4-yl)-3H-spiro[benzofuran-2,4′-piperidine]] and `c1cnc(-c2ccc3c(c2)CC2(CCN(C4CCC4)CC2)O3)cn1` [Compound 29, 1′-Cyclobutyl-5-(pyrazin-2-yl)-3H-spiro[benzofuran-2,4′-piperidine]] cannot be ordered by IC50: ≤ 100 nM for the first, ≤ 10 nM for the second.

`COc1ccnc(-c2ccc3c(c2)CC2(CCN(C4CCC4)CC2)O3)n1` [Compound 28, 1′-Cyclobutyl-5-(4-methoxypyrimidin-2-yl)-3H-spiro[benzofuran-2,4′-piperidine]] and `COc1ccnc(-c2ccc3c(c2)OC2(CCN(C4CCC4)CC2)C3)n1` [Compound 36, 1′-Cyclobutyl-6-(4-methoxypyrimidin-2-yl)-3H-spiro[benzofuran-2,4′-piperidine]] cannot be ordered by IC50: ≤ 100 nM for the first, ≤ 100 nM for the second.

`c1cn(-c2ccc3c(c2)CC2(CCN(C4CCC4)CC2)O3)cn1` [Compound 31, 1′-Cyclobutyl-5-(1H-imidazol-1-yl)-3H-spiro[benzofuran-2,4′-piperidine]] and `c1ccc2c(c1)ncn2-c1ccc2c(c1)CC1(CCN(C3CCC3)CC1)O2` [Compound 32, 5-(1H-Benzo[d]imidazol-1-yl)-1′-cyclobutyl-3H-spiro[benzofuran-2,4′-piperidine]] cannot be ordered by IC50: ≤ 10 nM for the first, ≤ 10 nM for the second.

`c1cc2c(cc1N1CCCCC1)CC1(CCN(C3CCC3)CC1)O2` [Compound 34, 1′-Cyclobutyl-5-(piperidin-1-yl)-3H-spiro[benzofuran-2,4′-piperidine]] and `c1cc2c(cc1N1CCCCC1)CC1(CCCN(C3CCC3)CC1)O2` (stereo not shown) [Compound 51, 1-Cyclobutyl-5′-(piperidin-1-yl)-3′H-spiro[azepane-4,2′-benzofuran]] cannot be ordered by IC50: ≤ 100 nM for the first, ≤ 100 nM for the second.

`N#Cc1ccc(-c2ccc3c(c2)OC2(CCN(C4CCC4)CC2)C3)cc1` [Compound 35, 4-(1′-Cyclobutyl-3H-spiro[benzofuran-2,4′-piperidine]-6-yl)benzonitrile] and `N#Cc1ccc(-c2ccc3c(c2)CC2(CCCN(C4CCC4)CC2)O3)cc1` (stereo not shown) [Compound 48, 4-(1-Cyclobutyl-3′H-spiro[azepane-4,2′-benzofuran]-5′-yl)benzonitrile] cannot be ordered by IC50: ≤ 100 nM for the first, ≤ 10 nM for the second.

`c1cnc(-c2ccc3c(c2)OC2(CCN(C4CCC4)CC2)C3)cn1` [Compound 37, 1′-Cyclobutyl-6-(pyrazin-2-yl)-3H-spiro[benzofuran-2,4′-piperidine]] and `c1cc2nc(-c3ccc4c(c3)CC3(CCN(C5CCC5)CC3)O4)cnc2[nH]1` [Compound 58, 1′-Cyclobutyl-5-(5H-pyrrolo[2,3-b]pyrazin-2-yl)-3H-spiro[benzofuran-2,4′-piperidine]] cannot be ordered by IC50: ≤ 100 nM for the first, ≤ 10 nM for the second.

`CN1CCN(c2ccc3c(c2)OC2(CCN(C4CCC4)CC2)C3)CC1` [Compound 38, 1′-Cyclobutyl-6-(4-methylpiperazin-1-yl)-3H-spiro[benzofuran-2,4′-piperidine]] and `c1cc2c(cc1CN1CCCC1)OC1(CCN(C3CCC3)CC1)C2` [Compound 45, 1′-Cyclobutyl-6-(pyrrolidin-1-ylmethyl)-3H-spiro[benzofuran-2,4′-piperidine]] cannot be ordered by IC50: ≤ 100 nM for the first, ≤ 100 nM for the second.

`N#Cc1ccc(NCc2ccc3c(c2)CC2(CCN(C4CCC4)CC2)O3)cc1` [Compound 42, 4-((1′-Cyclobutyl-3H-spiro[benzofuran-2,4′-piperidine]-5-yl)methylamino)benzonitrile] and `N#Cc1ccc(NCc2ccc3c(c2)OC2(CCN(C4CCC4)CC2)C3)cc1` [Compound 46, 4-((1′-Cyclobutyl-3H-spiro[benzofuran-2,4′-piperidine]-6-yl)methylamino)benzonitrile] cannot be ordered by IC50: ≤ 100 nM for the first, ≤ 100 nM for the second.

`CN(C)Cc1ccc2c(c1)OC1(CCN(C3CCC3)CC1)C2` [Compound 43, 1-(1′-Cyclobutyl-3H-spiro[benzofuran-2,4′-piperidine]-6-yl)-N,N-dimethylmethanamine] and `c1cc2c(cc1CN1CCOCC1)OC1(CCN(C3CCC3)CC1)C2` [Compound 44, 1′-Cyclobutyl-6-(morpholinomethyl)-3H-spiro[benzofuran-2,4′-piperidine]] cannot be ordered by IC50: ≤ 100 nM for the first, ≤ 100 nM for the second.

`c1cn2cc(-c3ccc4c(c3)CC3(CCCN(C5CCC5)CC3)O4)ccc2n1` (stereo not shown) [Compound 49, 1-Cyclobutyl-5′-(imidazo[1,2-a]pyridin-6-yl)-3′H-spiro[azepane-4,2′-benzofuran]] and `c1cc2c(cc1-c1ccc3nncn3c1)CC1(CCN(C3CCC3)CC1)O2` [Compound 63] cannot be ordered by IC50: ≤ 100 nM for the first, ≤ 10 nM for the second.

`c1ccc2c(c1)ncn2-c1ccc2c(c1)CC1(CCCN(C3CCC3)CC1)O2` (stereo not shown) [Compound 50, 5′-(1H-Benzo[d]imidazol-1-yl)-1-cyclobutyl-3′H-spiro[azepane-4,2′-benzofuran]] and `c1cc2c(cc1-c1ccc3cncn3c1)CC1(CCN(C3CCC3)CC1)O2` [Compound 57, 1′-Cyclobutyl-5-(imidazo[1,5-a]pyridin-6-yl)-3H-spiro[benzofuran-2,4′-piperidine]] cannot be ordered by IC50: ≤ 10 nM for the first, ≤ 10 nM for the second.

`Cc1cn2cc(-c3ccc4c(c3)CC3(CCN(C5CCC5)CC3)O4)ccc2n1` [Compound 54, 1′-Cyclobutyl-5-(2-methylimidazo[1,2-a]pyridin-6-yl)-3H-spiro[benzofuran-2,4′-piperidine]] and `c1nc2ccc(-c3ccc4c(c3)CC3(CCN(C5CCC5)CC3)O4)cn2n1` [Compound 62, 5-([1,2,4]Triazolo[1,5-a]pyridin-6-yl)-1′-cyclobutyl-3H-spiro[benzofuran-2,4′-piperidine]] cannot be ordered by IC50: ≤ 10 nM for the first, ≤ 10 nM for the second.

`c1cc2cc(-c3ccc4c(c3)CC3(CCN(C5CCC5)CC3)O4)cnc2[nH]1` [Compound 55, 1′-Cyclobutyl-5-(1H-pyrrolo[2,3-b]pyridin-5-yl)-3H-spiro[benzofuran-2,4′-piperidine]] and `c1cc2ncc(-c3ccc4c(c3)CC3(CCN(C5CCC5)CC3)O4)cc2[nH]1` [Compound 59, 1′-Cyclobutyl-5-(1H-pyrrolo[3,2-b]pyridin-6-yl)-3H-spiro[benzofuran-2,4′-piperidine]] cannot be ordered by IC50: ≤ 100 nM for the first, ≤ 10 nM for the second.

`c1cc2nc(-c3ccc4c(c3)CC3(CCN(C5CCC5)CC3)O4)ccc2[nH]1` [Compound 56, 1′-Cyclobutyl-5-(1H-pyrrolo[3,2-b]pyridin-5-yl)-3H-spiro[benzofuran-2,4′-piperidine]] and `c1cc2ncc(-c3ccc4c(c3)CC3(CCN(C5CCC5)CC3)O4)cc2o1` [Compound 60, 1′-Cyclobutyl-5-(furo[3,2-b]pyridin-6-yl)-3H-spiro[benzofuran-2,4′-piperidine]] cannot be ordered by IC50: ≤ 10 nM for the first, ≤ 10 nM for the second.

`Cn1cnc2cc(-c3ccc4c(c3)CC3(CCN(C5CCC5)CC3)O4)cnc21` [Compound 61, 1′-Cyclobutyl-5-(3-methyl-3H-imidazo[4,5-b]pyridin-6-yl)-3H-spiro[benzofuran-2,4′-piperidine]] and `c1cc2c(cc1-c1cnc3[nH]ncc3c1)CC1(CCN(C3CCC3)CC1)O2` [Compound 64, 1′-Cyclobutyl-5-(1H-pyrazolo[3,4-b]pyridin-5-yl)-3H-spiro[benzofuran-2,4′-piperidine]] cannot be ordered by IC50: ≤ 10 nM for the first, ≤ 10 nM for the second.

same assay, conditions: histamine H3 in vitro assay; read-out: IC50 values

For `Brc1ccc2c(c1)CC1(CCN(Cc3c[nH]cn3)CC1)O2` [Compound 26, 1′-((1H-Imidazol-4-yl)methyl)-5-bromo-3H-spiro[benzofuran-2,4′-piperidine]], the IC50 was > 1000 nM.
